Where a SMILES comes first, the peptide text is derived from it. The star is where a group is joined. For = O=C*
biological target: T1, LmjIPCS (inositol phosphorylceramide synthase from L. major) (Leishmania major, UniProt E9AFX2); experiment: biochemical; assay type: biochemical; parameters: inhibition: dose or concentration left out as unconfirmed; conditions: not given
T1 sequence (E9AFX2 1-338): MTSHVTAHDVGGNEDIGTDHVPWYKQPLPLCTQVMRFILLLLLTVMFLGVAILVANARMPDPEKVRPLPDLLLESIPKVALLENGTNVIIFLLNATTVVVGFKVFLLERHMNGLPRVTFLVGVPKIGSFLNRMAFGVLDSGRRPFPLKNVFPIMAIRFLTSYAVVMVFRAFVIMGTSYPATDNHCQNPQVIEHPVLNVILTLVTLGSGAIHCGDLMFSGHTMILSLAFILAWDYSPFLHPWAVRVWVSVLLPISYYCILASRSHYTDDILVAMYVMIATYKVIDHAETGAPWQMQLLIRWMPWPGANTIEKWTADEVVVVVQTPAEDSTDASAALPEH

SMILES	20mM inhibition LmjIPCS [%]
Cc1scc2c1N(C(=O)CN1CCN(C)CC1)c1ccccc1NC2=O [TELENZEPINE]	35
Cc1ccc(-c2cc(C(F)(F)F)nn2-c2ccc(S(N)(=O)=O)cc2)cc1 [CELECOXIB]	51
Cc1cccc(N(C)C(=S)Oc2ccc3ccccc3c2)c1 [TOLNAFTATE]	62
CON [METHOXYAMINE]	12
CO/N=C(\C(=O)N[C@@H]1C(=O)N2C(C(=O)O)=C(COC(C)=O)CS[C@H]12)c1csc(N)n1 [CEFOTAXIME]	44
NC(=O)N1c2ccccc2C=Cc2ccccc21 [CARBAMAZEPINE]	50
C=C(C)[C@H]1Cc2c(ccc3c2O[C@@H]2COc4cc(OC)c(OC)cc4[C@@H]2C3=O)O1 [ROTENONE]	43
CCC1(c2ccc(N)cc2)CCC(=O)NC1=O (stereo not drawn) [AMINOGLUTETHIMIDE]	56
CN(C)[C@@H]1C(O)=C(C(N)=O)C(=O)[C@@]2(O)C(O)=C3C(=O)c4c(O)cccc4[C@@](C)(O)[C@H]3C[C@@H]12 [TETRACYCLINE]	36
CN(C)CCC(c1ccc(Cl)cc1)c1ccccn1 (stereo not drawn) [CHLORPHENIRAMINE]	68
O=c1c2ccccc2[se]n1-c1ccccc1 [EBSELEN]	42
O=C(O)c1cc2cc(F)ccc2[nH]1 [5-FLUOROINDOLE-2-CARBOXYLIC ACID]	51

same assay, conditions: NINDS set screen, compound at 20mM (so in the source)

SMILES	20mM inhibition LmjIPCS [%]
C[C@]12CCC(=O)C=C1CC[C@@H]1[C@@H]2[C@@H](O)C[C@@]2(C)[C@H]1CC[C@]2(O)C(=O)COC(=O)CCC(=O)O [HYDROCORTISONE HEMISUCCINATE]	18
COc1ccc2cc([C@H](C)C(=O)O)ccc2c1 [NAPROXEN(+)]	18

same assay, conditions: NINDS set screen, single concentration printed as 20mM

SMILES	20mM inhibition LmjIPCS [%]
C=C1c2c(Cl)ccc(O)c2C(=O)C2=C(O)[C@]3(O)C(=O)C(C(N)=O)=C(O)[C@@H](N(C)C)[C@@H]3[C@@H](O)[C@H]12 [MECLOCYCLINE]	67
O=C1NCC2(CCN(CCc3ccccc3)CC2)O1 [FENSPIRIDE]	47
O=C(O)CCCCCCCC(=O)O [AZELAIC ACID]	38
CC(C)NCC(O)c1ccc2ccccc2c1 (stereo not drawn) [PRONETALOL]	60
CCCNC(=O)NS(=O)(=O)c1ccc(Cl)cc1 [CHLORPROPAMIDE]	55
Nc1ccc(S(=O)(=O)Nc2nccs2)cc1 [SULFATHIAZOLE]	35

same assay, conditions: NINDS set screen; read-out: inhibition LmjIPCS

SMILES	inhibition [%]
O=C(O)c1cn(-c2ccc(F)cc2)c2cc(N3CCNCC3)c(F)cc2c1=O [SARAFLOXACIN]	18
Cc1c(NC(C)C)c(=O)n(-c2ccccc2)n1C [RAMIFENAZONE]	0.419
Clc1ccc(C(OCCN2CCCCC2)c2ccccc2)cc1 (stereo not drawn) [CLOPERASTINE]	13
CCCCCCCCCCCCCCCC(=O)OC/C=C(C)/C=C/C=C(C)/C=C/C1=C(C)CCCC1(C)C [RETINYL PALMITATE]	18
NC(=O)c1ccccc1O [SALICYLAMIDE]	0.588
CC(=O)Nc1ccc(OC(=O)c2ccccc2O)cc1 [ACETAMINOSALOL]	-0.337
N[C@@H](CCC(=O)N[C@@H](CSC(CC(=O)O)C(=O)O)C(=O)NCC(=O)O)C(=O)O (stereo partly drawn) [S-(1,2-DICARBOXYETHYL)GLUTATHIONE]	14

same assay, conditions: read-out: 20mM inhibition LmjIPCS

SMILES	inhibition at 20000 µM [%]
NS(=O)(=O)c1cc(C(=O)O)c(NCc2ccco2)cc1Cl [FUROSEMIDE]	5
C#CC1(O)CC[C@H]2[C@@H]3CCC4=CC(=O)CC[C@@H]4[C@H]3CC[C@@]21CC (mixture of isomers) [NORGESTREL]	17
CO[C@@H]1[C@@H](OC(N)=O)[C@@H](O)[C@H](Oc2ccc3c(O)c(NC(=O)c4ccc(O)c(CC=C(C)C)c4)c(=O)oc3c2C)OC1(C)C [NOVOBIOCIN]	16
CC(=O)Nc1ccccc1 [ACETANILIDE]	3.75
CC(=O)O[C@]1(C(C)=O)CC[C@H]2[C@@H]3C=C(C)C4=CC(=O)CC[C@]4(C)[C@H]3CC[C@@]21C [MEGESTROL ACETATE]	15
CCOC(=O)[N-]c1cn(N2CCOCC2)n[o+]1 [MOLSIDOMINE]	-0.951
c1ccc(/N=N/c2ccccc2)cc1 [AZOBENZENE]	2.28
COc1ccc(C(C)=O)c(O)c1 [PAEONOL]	9
O=c1c(O)c(-c2ccc(O)c(O)c2)oc2cc(O)cc(O)c12 [QUERCETIN]	3.45
C=C(C)[C@@H]1[C@H]2OC(=O)[C@@H]1[C@]1(O)C[C@H]3O[C@]34C(=O)O[C@H]2[C@]14C [PICROTOXININ]	13
COc1ccc(-c2cc(C(F)F)nn2-c2ccc(S(N)(=O)=O)cc2)cc1F [DERACOXIB]	28
CC(C)NCC(O)COc1cccc2[nH]ccc12 (stereo not drawn) [PINDOLOL]	16
CC(=O)OCC(=O)[C@H]1CC[C@H]2[C@@H]3CCC4=CC(=O)CC[C@]4(C)[C@H]3CC[C@]12C [DESOXYCORTICOSTERONE ACETATE]	17
COc1ccc(OC)c(C(O)CNC(=O)CN)c1 (stereo not drawn) [MIDODRINE]	13
Cc1cccc(C)c1N=C1NCCCS1 [XYLAZINE]	-14
CCN1C[C@]2(C)CC[C@H](OC)[C@@]34C1[C@]1(OCO[C@@]15C[C@H](OC)[C@H]1C[C@]3(O)[C@@H]5[C@H]1OC)[C@@H](OC(C)=O)[C@H]24 [DELTALINE]	22
C[C@H](N)[C@H](O)c1ccc(O)c(O)c1 [LEVONORDEFRIN]	16
CN1CCC[C@H]1c1cccnc1 [NICOTINE]	10
C[N+]1(C)CCCC(OC(=O)C(O)(c2ccccc2)c2ccccc2)C1 (stereo not drawn) [MEPENZOLATE BROMIDE]	16
CN[C@@H]1[C@@H](O[C@H]2O[C@H](CO)[C@@H](N)[C@H](O)[C@H]2O)OC2C[C@@H](N)[C@@H](O[C@H]3[C@H](O)[C@@H](O)[C@H](N)C[C@@H]3N)OC2[C@@H]1O (stereo partly drawn) [APRAMYCIN]	0.0509
O=C1C=C2C(=CCOC2O)O1 (stereo not drawn) [PATULIN]	0.294
Nc1nc2c(ncn2COCCO)c(=O)[nH]1 [ACYCLOVIR]	5
NC(=O)C[S+]([O-])C(c1ccccc1)c1ccccc1 (stereo not drawn) [MODAFINIL]	13
CCCCCC1C(=O)CCC1CC(=O)OC (stereo not drawn) [DIHYDROJASMONIC ACID, METHYL ESTER]	-2
Cn1c(=O)c2[nH]cnc2n(C)c1=O [THEOPHYLLINE]	11
Cc1cc(NC(=O)C2=C(O)c3ccccc3S(=O)(=O)N2C)no1 [ISOXICAM]	-3
NC(=O)NC1NC(=O)NC1=O (stereo not drawn) [ALLANTOIN]	18
O=C(O)c1cn(C2CC2)c2cc(N3CCNCC3)c(F)cc2c1=O [CIPROFLOXACIN]	3
C[C@]12CCC(=O)C=C1C=C[C@@H]1[C@@H]2CC[C@@]2(C)[C@H]1CC[C@@]21CCC(=O)O1 [CANRENONE]	12
C#C[C@]1(O)CC[C@H]2[C@@H]3CCC4=C(CCC(=O)C4)[C@H]3CC[C@@]21C [NORETHYNODREL]	21

same assay, conditions: read-out: inhibition LmjIPCS

SMILES	inhibition [%]
COc1cc(NS(=O)(=O)c2ccc(N)cc2)nc(OC)n1 [SULFADIMETHOXINE]	15
CCCCNc1cc(C(=O)O)cc(S(N)(=O)=O)c1Oc1ccccc1 [BUMETANIDE]	9
O=C(O)CCc1nc(-c2ccccc2)c(-c2ccccc2)o1 [OXAPROZIN]	5.6
Cc1cnc(NC(=O)C2=C(O)c3ccccc3S(=O)(=O)N2C)s1 [MELOXICAM]	11
C[C@@]12C[C@@]3(O)O[C@@H](O1)[C@]1(COC(=O)c4ccccc4)[C@H]3C[C@@]12O[C@@H]1O[C@H](CO)[C@@H](O)[C@H](O)[C@H]1O [PEONIFLORIN]	12
O=C(C1CCCCC1)N1CC(=O)N2CCc3ccccc3C2C1 (stereo not drawn) [PRAZIQUANTEL]	-3.78
[H]/N=C(/N)N[C@H]1[C@H](O)[C@@H](O)[C@H](O[C@@H]2O[C@@H](C)[C@](O)(C=O)[C@H]2O[C@@H]2O[C@@H](CO)[C@H](O)[C@@H](O)[C@@H]2NC)[C@@H](N/C(N)=N\[H])[C@@H]1O [STREPTOMYCIN]	-0.116
CN1C(C(=O)Nc2ccccn2)=C(O)c2ccccc2S1(=O)=O [PIROXICAM]	15
C[C@H]1COc2c(N3CCN(C)CC3)c(F)cc3c(=O)c(C(=O)O)cn1c23 [LEVOFLOXACIN]	11
C[C@H]1[C@H](C)CC[C@]2(C(=O)O)CC[C@]3(C)C(=CC[C@@H]4[C@@]5(C)C[C@@H](O)[C@H](O)[C@@](C)(CO)[C@@H]5[C@H](O)C[C@]43C)[C@H]12 [MADECASSIC ACID]	10

same assay, conditions: screening of NINDS set, sheet Screen 1; read-out: inhibition LmjIPCS

SMILES	inhibition [%]
NC[C@H]1CC[C@H](C(=O)O)CC1 [TRANEXAMIC ACID]	2.2
CSC(N)=NCCC[C@H](N)C(=O)O [S-METHYL-L-THIOCITRULLINE ACETATE]	10
CCCCN1CCCCC1C(=O)Nc1c(C)cccc1C (stereo not drawn) [BUPIVACAINE]	5.35
C1N2CN3CN1CN(C2)C3 [METHENAMINE]	6
CC1(C)OC(=O)NC1=O [DIMETHADIONE]	6.6
S=c1[nH]cnc2nc[nH]c12 [MERCAPTOPURINE]	6

same assay, conditions: single concentration 20mM as printed; screening of NINDS set, sheet Screen 1

SMILES	20mM inhibition LmjIPCS [%]
NC(Cc1ccc(Cl)cc1)C(=O)O (stereo not drawn) [p-CHLOROPHENYLALANINE]	4
CSCC[C@H](NC=O)C(=O)N[C@@H](Cc1ccccc1)C(=O)O [N-FORMYLMETHIONYLPHENYLALANINE] (For-Met-Phe-OH)	5.35
